Reference: ChEMBL document CHEMBL1201862, “PubChem BioAssay data set” (2004)
Calls of active or inactive are those of the source.

Columns and labels:
[1] = target: Neuropeptide Y receptor type 1 (Homo sapiens, UniProt P25929); assay type: functional;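 note: HEK293 cells with a CNG channel challenged with NPY then isoproterenol; potency as antagonist that reverses NPY suppression of cAMP signal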
[2] = Trypanosoma cruzi growth suppression in host cells – NIH3T3 host cells, beta-gal luminescence, confirmation (AID 2044); assay type: functional, cell-based;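 note: intracellular parasites grown in NIH/3T3 mouse fibroblasts as host cells; luminescent beta-galactosidase reporter signal from transgenic T. cruzi replicating inside host cells; inhibitors lower the luminescence signal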
[3] = target: Neuropeptide Y receptor type 2 (Homo sapiens, UniProt P49146); assay type: functional, cell-based;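 note: HEK293 cells expressing the receptor and a CNG channel; stimulus was NPY near EC95 followed by isoproterenol to raise cAMP; antagonist potency measured as restoring cAMP signal that NPY suppresses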
Neuropeptide Y receptor type 2, sequence (P49146 whole entry): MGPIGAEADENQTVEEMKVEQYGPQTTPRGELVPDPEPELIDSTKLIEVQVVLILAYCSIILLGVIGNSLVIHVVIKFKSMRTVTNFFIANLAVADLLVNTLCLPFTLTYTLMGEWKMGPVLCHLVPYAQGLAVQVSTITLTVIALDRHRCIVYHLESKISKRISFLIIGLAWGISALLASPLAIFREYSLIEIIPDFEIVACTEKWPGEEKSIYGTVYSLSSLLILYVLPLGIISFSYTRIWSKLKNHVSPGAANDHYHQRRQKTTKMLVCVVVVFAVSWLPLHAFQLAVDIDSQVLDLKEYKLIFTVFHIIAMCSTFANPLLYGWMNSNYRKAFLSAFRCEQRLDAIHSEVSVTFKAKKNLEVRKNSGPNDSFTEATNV

[4] = NIH3T3 cell viability loss – ATP luminescence, mouse fibroblasts, counter-screen, dose response (AID 2010); assay type: functional, cell-based;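 note: cells exposed to compound for about 90 hours before reading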
NADPH oxidase 1 = NADPH oxidase 1 (Homo sapiens, UniProt Q9Y5S8); assay type: functional, cell-based;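 note: Cell-based assay with luminescence read-out, IC50 derived from inhibitor dose-response curves; intracellular ROS from endogenous NOX1 in intact HT29 colon cancer cells; potency of inhibitors that lower the ROS luminescence signal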
NADPH oxidase 1, sequence (Q9Y5S8 whole entry): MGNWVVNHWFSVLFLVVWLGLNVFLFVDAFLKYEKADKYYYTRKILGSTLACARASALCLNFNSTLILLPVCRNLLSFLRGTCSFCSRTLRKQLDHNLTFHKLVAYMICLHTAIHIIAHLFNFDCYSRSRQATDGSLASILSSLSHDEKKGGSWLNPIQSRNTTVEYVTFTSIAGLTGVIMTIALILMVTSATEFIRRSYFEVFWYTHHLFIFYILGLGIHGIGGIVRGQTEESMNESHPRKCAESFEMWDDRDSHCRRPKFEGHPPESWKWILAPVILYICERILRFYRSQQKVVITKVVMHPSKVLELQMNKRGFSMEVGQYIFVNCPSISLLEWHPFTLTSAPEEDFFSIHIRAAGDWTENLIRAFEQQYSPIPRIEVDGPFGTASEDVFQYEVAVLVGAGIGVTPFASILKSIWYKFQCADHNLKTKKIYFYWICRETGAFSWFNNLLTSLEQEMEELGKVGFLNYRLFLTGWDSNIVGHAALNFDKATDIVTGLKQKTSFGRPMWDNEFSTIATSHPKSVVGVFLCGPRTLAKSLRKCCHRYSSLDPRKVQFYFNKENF

[5] = target: Calpain-2 catalytic subunit (Sus scrofa, UniProt P43367); test: m-calpain protease blockers, concentration series – biochemical, fluorogenic peptide substrate, dose response (AID 1420); assay type: functional
Calpain-2 catalytic subunit, sequence (P43367 whole entry): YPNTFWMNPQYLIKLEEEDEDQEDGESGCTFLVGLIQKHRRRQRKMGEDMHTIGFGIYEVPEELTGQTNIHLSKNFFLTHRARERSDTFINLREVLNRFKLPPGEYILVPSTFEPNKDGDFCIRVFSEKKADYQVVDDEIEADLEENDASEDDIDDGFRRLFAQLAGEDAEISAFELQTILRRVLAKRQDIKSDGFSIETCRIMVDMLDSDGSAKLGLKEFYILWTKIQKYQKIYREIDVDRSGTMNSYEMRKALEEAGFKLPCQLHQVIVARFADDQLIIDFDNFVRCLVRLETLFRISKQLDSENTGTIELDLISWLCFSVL

Oxytocin receptor = Oxytocin receptor (Homo sapiens, UniProt P30559); test: Counterscreen for vasopressin 1 receptor (V1R) agonists: Fluorescence-based cell-based high throughput dose response assay for agonists of the Oxytocin Receptor (OXTR). [Related pubchem assays: 2435 (Primary screen (OXTR agonists in singlicate)), 434964 (Confirmation screen (V1R agonists in triplicate)), 434969 (Counterscreen (OXTR agonists in …; assay type: functional
Oxytocin receptor, sequence (P30559 whole entry): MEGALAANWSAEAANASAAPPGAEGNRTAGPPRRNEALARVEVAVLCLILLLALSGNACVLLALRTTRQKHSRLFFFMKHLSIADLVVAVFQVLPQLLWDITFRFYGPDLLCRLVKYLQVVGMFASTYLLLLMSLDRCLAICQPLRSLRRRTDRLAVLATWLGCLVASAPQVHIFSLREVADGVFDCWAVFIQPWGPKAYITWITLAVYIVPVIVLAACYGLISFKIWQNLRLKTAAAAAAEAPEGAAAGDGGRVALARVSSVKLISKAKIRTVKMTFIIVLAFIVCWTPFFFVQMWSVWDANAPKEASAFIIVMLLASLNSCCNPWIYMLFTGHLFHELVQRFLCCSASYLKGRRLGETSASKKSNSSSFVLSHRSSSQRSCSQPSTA

Vasopressin V1a receptor = Vasopressin V1a receptor (Homo sapiens, UniProt P37288); test: Fluorescence-based cell-based high throughput dose response screening assay for agonists of the vasopressin 1 receptor (V1R).; assay type: functional
Vasopressin V1a receptor, sequence (P37288 whole entry, the tested form may be a part): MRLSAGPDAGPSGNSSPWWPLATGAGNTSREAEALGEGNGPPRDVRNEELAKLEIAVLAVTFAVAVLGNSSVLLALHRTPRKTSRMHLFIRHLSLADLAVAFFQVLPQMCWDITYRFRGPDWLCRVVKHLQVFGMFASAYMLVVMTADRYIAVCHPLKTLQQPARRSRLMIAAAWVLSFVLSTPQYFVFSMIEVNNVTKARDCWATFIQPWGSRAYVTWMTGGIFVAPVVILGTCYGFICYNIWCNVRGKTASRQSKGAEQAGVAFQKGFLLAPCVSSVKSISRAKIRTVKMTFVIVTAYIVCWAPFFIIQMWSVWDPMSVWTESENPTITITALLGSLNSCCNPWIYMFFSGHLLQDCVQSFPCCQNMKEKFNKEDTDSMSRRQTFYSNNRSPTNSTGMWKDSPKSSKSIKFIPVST

[6] = target: T1, RNA-binding protein pos-1 (Caenorhabditis elegans, UniProt G5EF15); test: disruptors of C. elegans POS-1 RNA interaction – biochemical, fluorescence polarization, dose response (AID 1964);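 note: purified POS-1 fused to maltose binding protein made in E. coli; potency of compounds blocking POS-1 binding to fluorescent RNA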
T1 sequence (G5EF15 whole entry): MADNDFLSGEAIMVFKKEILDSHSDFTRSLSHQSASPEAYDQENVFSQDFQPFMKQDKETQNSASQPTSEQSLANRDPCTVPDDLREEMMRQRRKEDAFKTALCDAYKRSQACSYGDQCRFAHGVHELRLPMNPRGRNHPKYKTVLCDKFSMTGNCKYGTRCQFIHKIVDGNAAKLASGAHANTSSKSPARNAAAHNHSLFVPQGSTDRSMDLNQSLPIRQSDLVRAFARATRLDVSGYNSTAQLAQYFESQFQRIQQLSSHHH

[7] = target: T2, Zinc finger protein mex-5 (Caenorhabditis elegans, UniProt Q9XUB2); test: potency of MEX-5 RNA-binding blockers – biochemical, C. elegans, fluorescence polarization, dose response (AID 1960)
T2 sequence (Q9XUB2 whole entry): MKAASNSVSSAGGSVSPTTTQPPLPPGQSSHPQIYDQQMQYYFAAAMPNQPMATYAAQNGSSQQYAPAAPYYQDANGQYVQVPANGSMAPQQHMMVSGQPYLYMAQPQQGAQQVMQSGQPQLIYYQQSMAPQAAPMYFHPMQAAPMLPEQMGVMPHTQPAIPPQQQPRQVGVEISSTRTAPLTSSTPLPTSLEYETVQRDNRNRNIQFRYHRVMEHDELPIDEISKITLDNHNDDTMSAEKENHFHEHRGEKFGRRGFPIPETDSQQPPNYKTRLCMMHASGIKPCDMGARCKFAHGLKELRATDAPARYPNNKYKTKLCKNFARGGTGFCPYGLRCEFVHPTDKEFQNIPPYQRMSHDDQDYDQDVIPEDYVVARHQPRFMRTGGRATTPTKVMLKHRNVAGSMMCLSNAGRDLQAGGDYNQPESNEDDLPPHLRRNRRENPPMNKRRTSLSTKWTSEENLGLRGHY

[8] = target: T3, Bifunctional protein GlmU (Mycobacterium tuberculosis, UniProt P9WMN3); test: Inhibitors of Mycobacterial Glucosamine-1-phosphate acetyl transferase (GlmU). Secondary screen.; design: species or system Mycobacterium tuberculosis H37Rv
T3 sequence (P9WMN3 whole entry): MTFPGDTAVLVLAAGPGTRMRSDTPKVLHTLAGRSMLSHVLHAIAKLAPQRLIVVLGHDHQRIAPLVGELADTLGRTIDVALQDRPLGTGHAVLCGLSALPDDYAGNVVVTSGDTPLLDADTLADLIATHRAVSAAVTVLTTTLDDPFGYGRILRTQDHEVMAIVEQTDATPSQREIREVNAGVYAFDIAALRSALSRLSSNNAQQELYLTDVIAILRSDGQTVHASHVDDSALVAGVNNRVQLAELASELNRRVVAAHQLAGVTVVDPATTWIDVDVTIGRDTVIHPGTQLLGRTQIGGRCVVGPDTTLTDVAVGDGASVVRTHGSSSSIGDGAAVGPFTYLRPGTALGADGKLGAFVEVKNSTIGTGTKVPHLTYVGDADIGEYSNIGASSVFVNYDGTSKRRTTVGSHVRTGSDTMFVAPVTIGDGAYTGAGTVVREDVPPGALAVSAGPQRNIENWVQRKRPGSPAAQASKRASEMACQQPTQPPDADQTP

[9] = antiviral protection against BTV-induced cell death – arbovirus, BSR cells, confirmation (AID 1250); assay type: functional;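 note: protection from viral cytopathic effect measured as cell viability by ATP luminescence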
[10] = target: Heat shock protein HSP 90-alpha (Homo sapiens, UniProt P07900); assay type: functional, organism-based
Estrogen receptor = target: T4, Estrogen receptor (Homo sapiens, UniProt P03372);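 note: potency for inhibiting coactivator peptide recruitment to the receptor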
T4 sequence (P03372 whole entry): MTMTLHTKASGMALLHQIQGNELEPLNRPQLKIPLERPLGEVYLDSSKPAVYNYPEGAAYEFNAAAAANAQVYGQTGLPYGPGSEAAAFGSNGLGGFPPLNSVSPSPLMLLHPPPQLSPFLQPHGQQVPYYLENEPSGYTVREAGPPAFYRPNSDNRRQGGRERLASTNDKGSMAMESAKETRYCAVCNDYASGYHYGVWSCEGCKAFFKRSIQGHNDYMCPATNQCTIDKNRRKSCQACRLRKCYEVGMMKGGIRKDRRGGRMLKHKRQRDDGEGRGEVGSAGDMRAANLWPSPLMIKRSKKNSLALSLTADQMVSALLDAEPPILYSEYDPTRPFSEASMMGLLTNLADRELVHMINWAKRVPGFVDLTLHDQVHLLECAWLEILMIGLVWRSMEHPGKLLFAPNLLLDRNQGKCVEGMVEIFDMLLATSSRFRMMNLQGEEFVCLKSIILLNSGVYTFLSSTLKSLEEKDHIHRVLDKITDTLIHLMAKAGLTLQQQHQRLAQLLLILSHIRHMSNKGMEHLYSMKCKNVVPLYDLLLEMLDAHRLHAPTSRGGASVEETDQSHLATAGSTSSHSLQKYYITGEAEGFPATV

Estrogen receptor beta [11] = target: T5, Estrogen receptor beta (Homo sapiens, UniProt Q92731);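 note: recombinant ER-beta bound to coactivator SRC1 peptide in presence of estradiol agonist; inhibitors block coactivator peptide binding and lower the FRET signal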
T5 sequence (Q92731 whole entry): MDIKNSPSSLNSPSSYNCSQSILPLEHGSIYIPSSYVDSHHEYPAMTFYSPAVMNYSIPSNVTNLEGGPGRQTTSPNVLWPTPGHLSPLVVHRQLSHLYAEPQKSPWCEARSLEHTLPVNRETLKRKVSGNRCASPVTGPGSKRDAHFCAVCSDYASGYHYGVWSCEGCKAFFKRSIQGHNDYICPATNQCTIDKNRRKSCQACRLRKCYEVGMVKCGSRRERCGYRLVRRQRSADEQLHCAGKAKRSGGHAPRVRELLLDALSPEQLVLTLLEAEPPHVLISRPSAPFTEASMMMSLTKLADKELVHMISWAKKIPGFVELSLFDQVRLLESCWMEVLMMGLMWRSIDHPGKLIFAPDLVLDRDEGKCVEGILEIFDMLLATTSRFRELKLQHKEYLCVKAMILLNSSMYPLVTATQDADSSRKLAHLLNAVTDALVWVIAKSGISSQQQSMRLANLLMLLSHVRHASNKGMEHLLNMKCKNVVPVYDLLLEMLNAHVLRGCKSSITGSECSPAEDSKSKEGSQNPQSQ

Estrogen receptor beta [12] = target: T5, Estrogen receptor beta; test: blockers of SRC-3 recruitment to ERβ – biochemical, ELISA, streptavidin-HRP readout, orthogonal assay, confirmation (AID 1060)

Neuropeptide Y receptor type 1, sequence (P25929 whole entry): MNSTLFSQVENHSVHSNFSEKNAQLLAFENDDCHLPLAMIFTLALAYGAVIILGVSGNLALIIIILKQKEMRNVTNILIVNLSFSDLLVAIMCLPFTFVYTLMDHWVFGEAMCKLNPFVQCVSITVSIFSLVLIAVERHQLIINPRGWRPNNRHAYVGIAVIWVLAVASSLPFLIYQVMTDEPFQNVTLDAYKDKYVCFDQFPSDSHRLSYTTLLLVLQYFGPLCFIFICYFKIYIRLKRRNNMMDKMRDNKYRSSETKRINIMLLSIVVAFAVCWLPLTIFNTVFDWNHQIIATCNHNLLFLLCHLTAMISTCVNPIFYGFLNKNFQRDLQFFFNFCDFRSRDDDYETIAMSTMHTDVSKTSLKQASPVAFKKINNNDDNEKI

Cc1ccccc1N1CCN(CCCOc2ccc3c(C)cc(=O)oc3c2)CC1
IC50 [1]: > 35 µM (not active)
EC50 [2]: 0.124 µM (active)
IC50 [3]: > 35 µM (not active)
EC50 [4]: 9.32 µM (active)

COc1ccc(/C=N/Nc2c(Cl)cncc2Cl)c(OC)c1OC
IC50 (NADPH oxidase 1): > 17 µM (not active)

C=CCNC(=S)N/N=C/c1cccc([N+](=O)[O-])c1
IC50 [5]: 6.63 µM (active)

CCN(CC)c1ccc2cc(C(N)=O)/c(=N\NC(=O)c3ccncc3)oc2c1
EC50 (Oxytocin receptor): 21.8 µM (not active)
EC50 (Vasopressin V1a receptor): 18.6 µM (not active)

Cc1cc(/C=c2\sc3nc4ccccc4n3c2=O)c(C)n1-c1ccc(C(=O)O)cc1
EC50 [6]: > 300 µM (not active)
EC50 [7]: > 300 µM (not active)
IC50 [8]: 171 µM (active)
IC50 [9]: 25.8 µM (active)
AC50 [10]: 24.5 µM (active)

Cc1ccc(OCc2ccoc2C(=O)O)cc1C
IC50 (Estrogen receptor): 25.4 µM (active)
IC50 (Estrogen receptor beta [11]): 5.86 µM (active)
IC50 (Estrogen receptor beta [12]): < 0.023 µM (not active)
